From patent US20060035927A1, “Calcilytic compounds” (SmithKline Beecham Corporation, priority 1999, published 2006)
Counter-ions that a name gives are not always drawn.

What was measured:
[1] = Ovariectomized rat Study 1: circulating compound levels (LC/MS/MS); format: in vivo; settings: Study 1, plasma, after oral administration
Description: Seven month old virgin Sprague Dawley female rats were subjected to bilateral ovariectomy or sham surgery and the animals then held for a period of three months to allow the development of osteopenia. At that time a single sham group (n=10) and three groups of ovariectomized (ovx) animals (n=10-14) were assigned. The ovx groups were selected such that there was no significant difference in bone mineral density (“BMD”) of the lumbar spine, proximal tibia or distal femur between groups. Groups consisted of sham and ovx controls treated with dose vehicle (20% aqueous encapsin) and ovx groups treated with either N-[(2R-Hydroxy-3-[(3-chloro-2-cyano)phenoxy-propyl]-1,1-dimethyl-2-(2-naphthyl)ethyl amine hydrochloride (“calcilytic administered”) ([…] body weight daily p.o.) or rat PTH 1-34 (5 ug/kg body weight daily s.c.).
Timed plasma samples were collected relative to administration of compound or PTH. PTH 1-34 was measured by RIA (Nichols Institute Diagnostics, San Juan Capistrano, Calif.). The concentrations of compound in the plasma were quantified by LC/MS/MS (limit of detection 10 ng/ml).

[2] = tested on: primary human osteoblasts; experiment: Osteoblast cAMP production, primary human osteoblasts; format: cell-based; settings: compound 0.1, 1 and 10 uM
Description: (§1) cAMP accumulation was measured in both human TF274 osteoblastic cells (derived by immortalization of human bone marrow stromal cells) see James, supra, and primary human osteoblasts derived from explants of trabecular bone as described in Beresford, Biochim. Biophys. Acta, Vol. 801, pp. 58-65 ([…]). cAMP levels in cell samples were measured using a non-radioactive protocol (Amersham kit). Alkaline phosphatase activity was determined using the standard colorimetric method as described previously in Gowen, Arth. Rheum., Vol. 31, pp. 1500-1507 (1988). N-[(2R-Hydroxy-3-[(3-chloro-2-cyano)phenoxy-propyl]-1,1-dimethyl-2-(2-naphthyl)ethyl amine hydrochloride was tested at 0.1, 1 and 10 uM. PTH 40 ng/ml was used as a positive control.

TF274 cells = experiment: Osteoblast alkaline phosphatase activity; format: cell-based, human; settings: compound 0.1, 1 and 10 uM
Description: as §1

osteoblasts = experiment: Toxicity in vitro in osteoblast assays; format: cell-based, human; settings: 10 uM concentration
Description: as §1

fetal rat long bone = experiment: Fetal rat long bone resorption assay; format: cell-based; settings: 45Ca release, PTH-stimulated, 48 hours; read-out: IC50, inhibition of resorption in fetal rat long bone assay
Description: The assay was performed essentially as in Votta, Bone, Vol. 15, pp. 533-538, (1994). Timed-pregnant Sprague-Dawley rats (Taconic Farms, Germantown, N.Y.) were injected subcutaneously with 200 microcuries of ^45CaCl2 on day 18 of gestation, housed overnight, then anesthetized with Innovar-Vet (Pittman-Moore, Mundelein, Ill.) and sacrificed by cervical dislocation. The fetuses were removed aseptically and the radii and ulnae were dissected free of surrounding soft tissue and cartilagenous ends. The bone rudiments (n=4) were subsequently cultured for 18-24 hours in BGJb medium (Sigma, St. Louis, Mo.) containing 1 mg/ml BSA, then transferred to fresh medium and cultured for an additional 48 hours in the absence or presence of PTH (human parathyroid hormone, Bachem, Torrence, Calif.) and the desired inhibitor. ^45 Ca released into the medium and the residual ^45Ca in the bones (following solubilization in 5% TCA for 1 hour at room temperature) were quantitated by liquid scintillation spectrometry. Data are expressed as the percent ^45Ca released from treated bones as compared with corresponding control bones. Statistical differences were assessed by a one way analysis of variance (ANOVA). IC-50 values were based on data from two independent experiments.

Ca^2+ receptor = biological target: T1, Ca^2+ receptor (Homo sapiens, UniProt P41180); experiment: Ca2+ receptor-mediated Ca2+ mobilization; format: cell-based
T1 sequence (P41180 20-1078): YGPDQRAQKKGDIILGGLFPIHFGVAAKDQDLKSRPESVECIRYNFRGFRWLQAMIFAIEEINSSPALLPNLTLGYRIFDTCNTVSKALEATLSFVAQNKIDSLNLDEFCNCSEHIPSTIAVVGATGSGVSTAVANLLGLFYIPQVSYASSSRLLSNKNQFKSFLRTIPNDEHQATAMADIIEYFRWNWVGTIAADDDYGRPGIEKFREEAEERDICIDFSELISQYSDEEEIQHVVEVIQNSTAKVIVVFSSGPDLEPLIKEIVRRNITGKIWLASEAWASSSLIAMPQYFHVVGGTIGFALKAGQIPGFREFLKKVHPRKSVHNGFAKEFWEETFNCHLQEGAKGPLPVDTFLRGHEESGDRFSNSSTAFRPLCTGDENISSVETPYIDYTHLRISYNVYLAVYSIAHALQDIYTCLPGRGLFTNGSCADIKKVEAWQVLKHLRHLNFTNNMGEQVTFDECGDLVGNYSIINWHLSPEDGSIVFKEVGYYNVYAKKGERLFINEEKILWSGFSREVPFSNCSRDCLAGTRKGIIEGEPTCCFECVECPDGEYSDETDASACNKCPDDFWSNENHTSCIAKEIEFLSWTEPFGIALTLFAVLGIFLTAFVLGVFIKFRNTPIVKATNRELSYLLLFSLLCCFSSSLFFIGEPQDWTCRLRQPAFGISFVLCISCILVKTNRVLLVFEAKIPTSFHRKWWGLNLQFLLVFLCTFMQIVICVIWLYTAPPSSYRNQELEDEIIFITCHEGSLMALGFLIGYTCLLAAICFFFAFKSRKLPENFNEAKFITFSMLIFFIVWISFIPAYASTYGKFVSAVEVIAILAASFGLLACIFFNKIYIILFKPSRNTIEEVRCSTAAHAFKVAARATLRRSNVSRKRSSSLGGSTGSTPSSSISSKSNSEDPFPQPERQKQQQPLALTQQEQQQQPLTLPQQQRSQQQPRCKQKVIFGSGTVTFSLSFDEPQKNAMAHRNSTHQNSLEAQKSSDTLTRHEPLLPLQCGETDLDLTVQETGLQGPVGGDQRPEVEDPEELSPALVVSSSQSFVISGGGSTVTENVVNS

## CC(C)(Cc1ccc2ccccc2c1)NC[C@@H](O)COc1cccc(Cl)c1C#N [N-[(2R-Hydroxy-3-[(3-chloro-2-cyano)phenoxy-propyl]-1,1-dimethyl-2-(2-naphthyl)ethylamine hydrochloride]
[1]
  sustained exposure to compound (circulating levels): elevated for up to eight hours
[2]; PTH 40 ng/ml
  PTH-induced cAMP levels: no effect
[2]; PTH 40 ng/ml positive control
  cAMP levels (basal): no effect
TF274 cells
  alkaline phosphatase activity: did not result in any change
TF274 cells; PTH 40 ng/ml
  PTH-induced alkaline phosphatase: nor was PTH-induced alkaline phosphatase affected
osteoblasts
  toxicity in vitro: some toxicity
Fetal rat long bone
  IC50: 11.3 µM
Ca^2+ receptor
  fold by which fetal rat long bone IC50 exceeds IC50 for Ca^2+ receptor-mediated Ca^2+ mobilization: approximately 300 fold
